In US20210380952A1, “Method to Produce Virus in Cultured Cells Supplemented With Alpha-Ketoglutarate” (THE TRUSTEES OF PRINCETON UNIVERSITY, priority 2012, published 2021):
Like-named read-outs stand apart in the source and are kept apart here.

What was measured:
AD169 strain of HCMV = format: cell-based, human cytomegalovirus; details: for HCMV yield, fold change relative to no treatment (NT): MRC5, 0.5 IU/cell, 96 h after infection
Procedure: Cells were infected with the AD169 strain of HCMV at a multiplicity of 0.5 infectious units/cell, and immediately following a 2-hour adsorption period, cells were fed with medium (Dulbecco's Modified Eagle Medium, DMEM) containing 10% fetal calf serum plus various fatty acids, cholesterol and carbonyl scavenging compound. At 96 hours post infection, infectious virus in the medium was assayed by fluorescent focus assay using antibody to the HCMV IE1 protein.
Briefly, About 90% confluent MRC5 human fibroblasts were infected with HCMV at a multiplicity of 0.5 IU/cell. Two hours after infection, medium was replaced with fresh medium containing 10% fetal calf serum and either of oleic acid (OA, up to about 100 μM), linoliec acid (LA, up to about 100 μM), a-linolenic acid (LLA, up to about 100 μM), eicosapentaenoic acid (EPA, up to about 75 μM), or docosahexaenoic acid (DHA, up to about 50 μM). The experiment was also performed in the presence of either aminoguanidine (AG, up to about 250 μM) or cholesterol (chol., up to about 13 μM). Virus production at 96 hours after infection was determined by fluorescent focus assay in MRC-5 cells and shown as a fold change relative to no treatment (NT) which was 5×10^5 infectious units. The fold-changes are the average of two independent infections.
Briefly, about 90% confluent MRC5 fibroblasts were infected with HCMV at a multiplicity of 0.5 IU/cell. Two hours after infection, medium was replaced with fresh medium containing 10% fetal calf serum and α-tocopherol (α-T) or aminoguanidine (AG) at indicated concentrations. Virus production at 96 h after infection was determined by fluorescent focus assay in which MRC-5 cells and shown as a fold change relative to no treatment (NT). The fold-changes are the average of two independent infections. Results are set out in FIG. 2.
MRC5 fibroblasts were infected with the AD169 strain of HCMV at a multiplicity of 0.5 infectious units/cell in glutamine/GlutaMAX-free DMEM containing 10% dialyzed FCS. The dialyzed serum was used to completely eliminate the glutamine in the culture medium. The cells received either 2 mM GlutaMAX, which served as a control, or 7 mM α-kg. At 96 hours post infection, infectious virus in the medium was assayed by fluorescent focus assay using antibody to the HCMV IE1 protein.

VZV [1] = experiment: Yield of cell-free VZV from infected MRC5 cells, plaque assay on ARPE-19 cells; format: cell-based, varicella zoster virus; details: for VZV yield relative to no treatment (NT): with 10 μM α-T, 6 h after infection, HSA and DHA 25 μM, AA 100 μM, MOI 1:100, 72 hours post infection; for VZV yield, factor of increase: MOI 1:250, 72 h
VZV [2] = experiment: as above; format: cell-based, varicella zoster virus; details: for VZV yield, fold change relative to no treatment (NT): added 6 hpi; for VZV yield, fold change relative to no treatment (NT) / VZV yield relative to no treatment (NT): MOI 1:50, 72 h; for VZV yield relative to no treatment (NT): 25 μM fatty acid plus 10 μM αT, 6 h after infection, sonicated immediately
Procedure: For this test, MRC5 cells (passage 20-25) were seeded at a density of 300.000 cell/100 mm culture dish and grown in 15 ml of DMEM containing 10% fetal calf serum plus 2 mM GlutaMAX (GIBCO®, GlutaMAX™) at 35° C. A lipid mixture (LM-1, 1 ml/liter medium, Sigma Aldrich #L5146) was added to the cells either at the time of seeding or 1 day after seeding. Three days later, the culture medium was replaced with 10 ml growth medium containing 50 mM sucrose as a stabilizer. The cells were further incubated for 3 days and growth medium was replaced with fresh medium containing no sucrose. After cells reached confluence, they were infected with VZV by adding infected cells (1 infected cell/50 uninfected cells; infected cells were from a preparation frozen in a solution of 10% DMSO plus 90% fetal calf serum and stored in liquid nitrogen). At the time of infection, the cultures were re-fed with DMEM containing 10% fetal calf serum plus 2 mM glutamax. Arachidonic acid (AA)+alpha-tocopherol (αT) or DHA+αT were added at the indicated times. 72 hours after infection, cells were washed twice with PBS, and incubated in 10 ml of PBS containing 50 mM ammonium chloride for 50 minutes at 4° C. The cells were harvested and frozen in PSGC buffer (Harper et al., Arch Virol 143:1163-70, 1998) at −80° C. Infectious virus was subsequently quantified by plaque assay of sonicated cells on ARPE-19 cells (American Type Culture Collection). Results are set out in FIG. 3.
Briefly, in these repeat experiments, MRC5 cells were infected with VZV at an MOI=1:50. AA, DHA, and αT were added to the cells at 6 hpi as indicated. 72 hours after infection, the cells were harvested into PSGC buffer and frozen at −80° C. for later processing. After thawing, the cells were sonicated and the yield of cell free VZV quantified by standard plaque assay on ARPE-19 cells. Fold change relative to no treatment (NT) is shown. […] The fold-changes are the average of two independent infections.
In brief, MRC5 cells were infected with VZV at an MOI=1:50. Lipid mixture 1(LM-1) was added to the cells immediately after cell seeding. At 6 hours after infection, up to about 100 μM AA or […] was added to cells together with up to about 10 μM αT. 72 hours after infection, the cells were harvested into PSGC buffer and either frozen at −80° C. and sonicated later for the release of virus (frozen cells) or immediately sonicated after harvesting and supernatants containing the cell-free VZV were frozen at −80° C. (frozen sup.) prior to titration. Cell-free VZV yield was quantified by plaque assay on APRE-19 cells. Fold change relative to no treatment (NT) is shown. The numbers above the bars indicate the amount of virus obtained per ml in the corresponding treatment. The results are set out in FIG. 5.
Briefly, MRC5 cells were infected with VZV at an MOI=1:50. Six hours after infection cells were treated with indicated combinations of lipids plus 10 μM αT. Hexacosanoic acid (HSA) and octacosanoic acid (OSA) were dissolved in 20 mg/ml α-cyclodextin (Sigma-Aldrich) in PBS by sonication and added to a solution of 10 mg/ml fatty acid-free BSA (Sigma-Aldrich) in PBS (1:1, v/v) to give a stock concentration of 10 mM for each fatty acid. HSA, OSA, and DHA were used at 25 μM, and AA was used at 25 μM. Two sets of fatty acid concentrations was used for combination treatments: DHA, AA, and HSA was either added at concentrations of 25 μM, 100 μM, and 25 μM (high), or 10 μM, 50 μM, and 10 μM (low), respectively. 72 hours after infection, the cells were harvested into PSGC buffer, sonicated immediately and the yield of cell free VZV quantified by plaque assay on ARPE-19 cells. Fold change relative to no treatment (NT) is shown. The fold-changes are the average of two independent infections.
Briefly, MRC5 cells were grown in DMEM containing 10% fetal calf serum, 2 mM GlutaMAX) at 35° C. as described in the text. […]

MRC5 cells = experiment: Cytotoxicity evident upon visual inspection of treated infected cells; format: cell-based, human; details: 100 μM fatty acid; VZV-infected MRC5 cells
[3] = additive alone in medium from 2 h after infection, OA, LA, LLA up to about 100 μM, EPA 75 μM, DHA 50 μM, AG 250 μM, chol. 13 μM
[4] = 25 μM fatty acid, absence of αT
[5] = fatty acid together with aminoguanidine (up to about 250 μM)

## CC(C)CCC[C@@H](C)[C@H]1CC[C@H]2[C@@H]3CC=C4C[C@@H](O)CC[C@]4(C)[C@H]3CC[C@]12C [cholesterol]
AD169 strain of HCMV; [3]
  HCMV yield, fold change relative to no treatment (NT): no effect on HCMV yield
AD169 strain of HCMV; cholesterol (up to about 13 μM) together with fatty acids, MRC5, 96 h after infection
  HCMV yield, effect on the enhancing effects of fatty acids: did not improve, and in some cases inhibited
VZV [1]; 13 μM cholesterol, MOI 1:100, 72 hr after infection
  VZV yield, factor relative to no treatment: increased the yield of VZV by a factor of about two

## CC/C=C\C/C=C\C/C=C\C/C=C\C/C=C\C/C=C\CCC(=O)O [DHA, docosahexaenoic acid]
AD169 strain of HCMV; [3]
  HCMV yield, fold change relative to no treatment (NT): 4.6 fold
VZV [2]; [4]
  VZV yield, fold change relative to no treatment (NT): about 1.5 fold
MRC5 cells
  Cytotoxicity / cellular toxicity: toxic in the absence or presence of αT

## CCCCC/C=C\C/C=C\C/C=C\C/C=C\CCCC(=O)O [AA, arachidonic acid]
VZV [2]; 25 μM fatty acid in the presence of αT
  VZV yield, fold change relative to no treatment (NT): increased the virus yield
VZV [2]; [4]
  VZV yield, fold change relative to no treatment (NT): enhanced the yield of virus
VZV [2]; 100 μM fatty acid, absence of αT
  VZV yield, fold change relative to no treatment (NT): inhibited virus production
VZV [1]; 100 μM fatty acid in the presence of αT, added 6 hpi, MOI 1:50, 72 h
  VZV yield, fold change relative to no treatment (NT): 5 fold
VZV [1]
  VZV yield relative to no treatment (NT): elevated the yield of VZV

## CC/C=C\C/C=C\C/C=C\C/C=C\C/C=C\CCCC(=O)O [EPA, eicosapentaenoic acid]
AD169 strain of HCMV; [3]
  HCMV yield, fold change relative to no treatment (NT): 2.5 fold

## N=C(N)NN [aminoguanidine]
AD169 strain of HCMV; [3]
  HCMV yield, fold change relative to no treatment (NT): about 2.6 fold

## CCCCCCCCCCCCCCCCCCCCCCCCCCCC(=O)O [OSA, octacosanoic acid]
VZV [2]
  VZV yield relative to no treatment (NT): improved virus yields in comparison to no treatment

## CC/C=C\C/C=C\C/C=C\CCCCCCCC(=O)O [LLA, α-linolenic acid]
AD169 strain of HCMV; [3]
  HCMV yield, fold change relative to no treatment (NT): about 1.2 fold
AD169 strain of HCMV; [5]
  HCMV yield, fold change relative to no treatment (NT): reduced

## CCCCCCCC/C=C\CCCCCCCC(=O)O [OA, oleic acid]
AD169 strain of HCMV; [3]
  HCMV yield, fold change relative to no treatment (NT): reduced the yield of HCMV
AD169 strain of HCMV; [5]
  HCMV yield, fold change relative to no treatment (NT): reduced
VZV [2]; 100 μM
  VZV production, factor of reduction: 2
MRC5 cells
  Cytotoxicity / cellular toxicity: without causing observable cellular toxicity

## COC(=O)CCC(=O)C(=O)OC [α-kg, dimethyl-α-ketoglutarate]
AD169 strain of HCMV; 7 mM α-kg replacing glutamine, glutamine/GlutaMAX-free DMEM, 10% dialyzed FCS, 0.5 infectious units/cell, 96 hours post infection
  Production of cell-free HCMV, fold increase relative to 2 mM GlutaMAX control: 4.3 fold
VZV [1]; 1 mM α-kg in the absence of GlutaMAX, MOI 1:100, 72 h
  VZV replication / titers: unable to support virus replication
VZV [1]; 2.5 mM α-kg in the absence of GlutaMAX, MOI 1:100, 72 h
  VZV replication / titers: unable to support virus replication
VZV [1]; 7 mM α-kg alone, glutamine/GlutaMAX-free medium, MOI 1:50, added 6 hpi, 72 h
  VZV yield, fold increase relative to GlutaMAX (NT; 2 mM): 3.4 fold
VZV [1]; 7 mM α-kg in the absence of GlutaMAX, MOI 1:100, 72 h
  VZV replication, fold enhancement compared to the addition of 2 mM GlutaMAX: 2.8 fold
VZV [1]; 7 mM α-kg in the presence of 2 mM GlutaMAX, MOI 1:100, added 6 h, 72 h
  VZV yield, fold increase: about 2.1 fold
VZV [1]; MRC5, MOI 1:100, 72 h
  Concentration required to optimally support the replication of VZV: > 2.5 mM
VZV [1]; glutamine-free medium supplemented with dialyzed serum (10% dialyzed FCS)
  VZV yield, factor of increase: ~9.7
VZV [1]; glutamine/GlutaMAX-free medium containing normal serum (10% FCS)
  VZV yield, factor of increase: ~3.7 fold

## CCCCC/C=C\C/C=C\CCCCCCCC(=O)O [LA, linoleic acid]
AD169 strain of HCMV; [3]
  HCMV yield, fold change relative to no treatment (NT): had little effect on the yield
AD169 strain of HCMV; [5]
  HCMV yield, fold change relative to no treatment (NT): reduced

## Cc1c(C)c2c(c(C)c1O)CC[C@@](C)(CCC[C@H](C)CCC[C@H](C)CCCC(C)C)O2 [alpha-tocopherol]
AD169 strain of HCMV; Example 2, FIG. 2, scavenging compound alone from 2 h after infection, MRC5, 96 h
  HCMV production relative to no treatment (NT): enhances the production of HCMV

## CCCCCCCCCCCCCCCCCCCCCCCCCC(=O)O [HSA, hexacosanoic acid]
VZV [2]
  VZV yield relative to no treatment (NT): improved virus yields in comparison to no treatment
VZV [1]
  VZV yield relative to no treatment (NT): elevated the yield of VZV
